# Results taken from patent publication US20100095387A1, “METHODS AND REAGENTS FOR SCREENING NEW DRUGS AND FOR TREATING ION PUMP ASSOCIATED DISORDERS AND DISEASES” (priority 2005, published 2010).
# Legend:
# [1] = tested on: layer V neurons in acute cortical slices; experiment: Whole cell current clamp of layer V neurons in acute cortical slices; assay type: cell-based, mouse
# α3Na+/K+-ATPase = α3Na+/K+-ATPase (Mus musculus, UniProt Q6PIC6); experiment: Na+ imaging (SBFI-AM) of cultured cortical cells; assay type: cell-based; conditions: fragment or ouabain alone; neurons
compound,measurement,setting,value
"C=C(C)[C@H]1CN[C@H](C(=O)O)[C@H]1CC(=O)O [kainic acid, reference compound]",action potential frequency,[1],0.6±0.2 Hz
same,membrane potential,[1],−56.2±1.3 mV
"C[C@@H]1O[C@@H](O[C@H]2C[C@@H](O)[C@]3(CO)[C@H]4[C@H](O)C[C@]5(C)[C@@H](C6=CC(=O)OC6)CC[C@]5(O)[C@@H]4CC[C@]3(O)C2)[C@H](O)[C@H](O)[C@H]1O [ouabain, reference compound]",neuronal intracellular Na+,α3Na+/K+-ATPase,increase
